These results are taken from patent US9125912B1, “Method of treating ulcerative colitis” (KING SAUD UNIVERSITY, priority 2015, dated 2015).

In the assay the test system is ulcerative colitis induced by acetic acid. Description: Ulcerative colitis induced by acetic acid in rats, macroscopic parameters. As to conditions: from ulcer index, oral once daily for 5 days before induction, extracts 400 mg/kg, volatile oil 50 mg/kg, dexamethasone 0.1 mg/kg. It is filed as in vivo, Male Wistar rats.

Text: The extracts (total alcohol extract, total phenolic contents and volatile oil) of the three plants under investigation were freshly suspended in distilled water just before administration by the aid of Tween 80.
The extracts of Ocimum americanum, Ocimum basilicum and Ocimum basilicum var. thyrsiflora were independently administered to rats five days prior to ulcer induction. In detail, twelve experimental groups, each of 6 Male Wistar rats were used. Rats of groups 1 and 2 received the vehicle (5 mL/kg) and served as normal control and control colitis groups. […] Rats of groups 4-12 received the volatile oil extract, the total alcohol extract and the total phenolic extract of each of the three plants. Doses of 400 mg/kg of the total alcohol extract and the phenolic content were administered. Doses of 50 mg/kg of the volatile oil were administered. All medications were administered orally, once daily for 5 successive days and the last dose was administered 2 hours before colitis induction.
Animals were fasted overnight, with access to water ad libitum. Under ether anesthesia a solution of 2 mL (4%, v/v) acetic acid in saline was slowly infused into the colon through the polyethylene catheter 2 mm diameter that was inserted into the lumen of the colon via the anus to a distance of 8 cm. […]
The colon specimens were weighted and wet weight/length ratio was calculated for all the rats. The specimens were examined under a dissecting microscope and the lesion scores were quantified by scoring system (0-5).
Ulcer area was measured using plane glass square. Each cell on the glass square was 1 mm^2 in area and the number of cells was counted and the ulcer area was determined for each colon.
Ulcer index (UI) was measured by summing the lesion score and the ulcer area for each colon specimen. The curative ratio was determined according to the formula: Curative ratio=Control UI−Test UI/Control UI×100.
Data were expressed as mean±S. D. Statistical analysis was done by using SPSS 14. Statistical significance of differences between two means was assessed by unpaired Student's ‘t’ test. […]

On to `C[C@@H]1C[C@H]2[C@@H]3CCC4=CC(=O)C=C[C@]4(C)[C@@]3(F)[C@@H](O)C[C@]2(C)[C@@]1(O)C(=O)CO` [Dexamethasone], for which the “% Protection from control colitis” value turned out to be 71.54%. Under “listed as dexamesthasone”, the “% Protection from control colitis” value is on record as “about 71.54%”. In addition, the “% Protection from control colitis” value (listed as dexamethasone) is 71.54%.
